From patent US20220273809A1, “AXL ANTIBODY-DRUG CONJUGATES FOR USE IN TREATING CANCER” (GENMAB A/S, priority 2019, published 2022) come the findings set out here.

Test [1] relates to LCLC-103H cells. Kind of test: Extracellular ATP release in vitro (CellTiterGlo). The test is classed as cell-based, human. The conditions noted are these: 48 hr, 100% PBS; ADC 2 μg/mL, paclitaxel 1 μM, MMAE 10 or 50 nM. The procedure: (§1) LCLC-103H or MDA-MB-231 cells were seeded in quadruplicate at 25,000 cells per well for LCLC-103H cells or 125,000 cells per well for MDA-MB-231 cells in 24-well plates and grown 3 hours at 37° C. Subsequently, IgG1-AXL-107-vcMMAE (2 μg/mL), free monomethyl auristatin E (MMAE; 10 or 50 nM), paclitaxel (1 μM), or isotype control ADC (IgG1-b12-vcMMAE; 2 μg/mL) were added per well.
(§2) Plates were incubated for 48 hr at 37° C. and after incubation each well was washed with 200 μL PBS. After the final wash, PBS was replaced with 200 μL fresh 100% PBS or 70% PBS (hypotonic) for the indicated times, harvested and transferred to a 96-well plate, and then spun at 1000 rpm for 2 min at RT. Supernatants were transferred to a new 96-well (optiwhite) plate and ATP was measured using CellTiterGlo Luminescent Cell Viability Assay (Promega, Cat.no G7570) according to manufacturer's instructions. All steps were performed with ice-cold PBS and in the dark.
Background: Cellular ATP, detected with luciferase, serves as a proxy for viable cell number.

Test [2] relates to MDA-MB-231 cells. Kind of test: Extracellular ATP release in vitro (CellTiterGlo). The test is classed as cell-based, human. The conditions noted are these: 48 hr. The protocol:
as §1, §2

The test system of test [3] is LCLC-103H cells. Put plainly: Calreticulin surface expression in vitro (flow cytometry). The test is classed as cell-based, human. The following applies: 48 h; for cell surface expression of calreticulin (MFI) compared to untreated cells: ADCs 2 μg/mL, MMAE 10 or 50 nM, paclitaxel 1 μM; for percentage of calreticulin positive cells: compared to untreated or isotype control ADC. The procedure: (§3) LCLC-103H or MDA-MB-231 cells were grown to 70% to 80% confluence in 6-well plates, washed with serum-free medium and incubated with IgG1-AXL-107-vcMMAE (2 μg/mL), free monomethyl auristatin E (MMAE, SAFC, cat.no SG10; 10 or 50 nM), paclitaxel (1 μM), or isotype control ADC (IgG1-b12-vcMMAE; 2 μg/mL) in serum-free medium (RPMI1640, Lonza BE17-603E) for 48 hours (LCLC-103H) or 72 hours (MDA-MB-231). After incubation, supernatant and cells were collected and washed in PBS/0.1% BSA/0.02% azide (FACS buffer). Cells were then incubated with a phycoerythrin (PE)-conjugated mouse anti-human calreticulin antibody (Enzo, Cat no. ADI-SPA-601PE-D, lot. 10021835) for 30 min at 4° C. in the dark. A PE-conjugated mouse isotype control antibody (Enzo, cat no. ADI-SAB-600PE-D, lot. 08071817) was included as a control. After washing with FACS buffer, cells were analyzed with flow cytometry in the presence of DAPI (BD; cat no. 564907, lot. 8012653) or TO-PRO-3 (Thermo Fisher, cat no. T3605, lot. 1976612). Calreticulin expression was determined as PE positive cells and the percentage of calreticulin positive cells over isotype control was obtained on DAPI or TO-PRO-3 negative cells.
For orientation: Flow cytometry measures light scatter and fluorescence of single cells or particles in a stream.

For test [4], the system named is MDA-MB-231 cells. The test is described as above. The test is classed as cell-based, human. The conditions noted are these: 72 h; for cell surface expression of calreticulin (MFI) compared to untreated cells: ADCs 2 μg/mL, MMAE 10 or 50 nM, paclitaxel 1 μM; for percentage of calreticulin positive cells: compared to untreated or isotype control ADC. The procedure:
as §3

Test [5] deals with LCLC-103H cells. Kind of test: HMGB1 secretion in vitro (ELISA). The test is classed as cell-based, human. The following applies: 48 hrs; ADC 2 μg/mL, MMAE 10 or 50 nM, paclitaxel 1 μM. The procedure: (§4) MDA-MB-231 or LCLC-103H cells were seeded in quadruplicate at 125,000 cells per well (MDA-MB-231) or 25,000 cells/well (LCLC-103H) in 24-well plates and grown 3-4 hrs at 37° C. Subsequently, IgG1-AXL-107-vcMMAE (2 μg/mL), free monomethyl auristatin E (MMAE; 10 or 50 nM), paclitaxel (1 μM), or isotype control ADC (IgG1-b12-vcMMAE; 2 μg/mL) were added to the wells and plates were incubated for 48 hrs at 37° C. After incubation cells were pelleted at 1000 rpm for 3 min at RT and supernatants were transferred to a new 96-wells plate. HMGB1 was measured in the supernatant using a HMGB1-specific ELISA kit (IBL, Cat.no ST51011) according to manufacturer's instructions.
A general note: In an ELISA, binding on a coated surface is turned into a signal by an enzyme label.

Test [6] has as its system MDA-MB-231 cells. Put plainly: HMGB1 secretion in vitro (ELISA). The test is classed as cell-based, human. The following applies: 48 hrs; ADC 2 μg/mL, MMAE 10 or 50 nM, paclitaxel 1 μM. The procedure:
as §4

Test [7] has as its system BLM human melanoma cell line-derived xenograft. Put plainly: BLM melanoma xenograft model with MART-1-specific human T cells. The test is classed as in vivo, mice. The following applies: ADC single dose 4 mg/kg i.v. with control or MART-1 T cells; anti-PD1 5 mg/kg weekly i.p. with MART-1 T cells and control ADC. The protocol: The anti-tumor activity of IgG1-AXL-107-vcMMAE in combination with anti-PD1 (pembrolizumab) was evaluated in the BLM human melanoma cell line-derived xenograft model in mice, which systemically received human T-cells that were engineered to express a melanoma-specific T-cell receptor (TCR) against MART-1. Before inoculation of mice with BLM cells, the BLM cells were transduced with the antigen (MART-1) as well as the correct HLA haplotype (HLA-A2) in order for the MART-1-specific T cells to recognize the tumor cells.
Melanoma cell line BLM was cultured in DMEM (Gibco), with fetal bovine serum (Sigma), 100 U/mL penicillin (Gibco) and 0.1 mg/mL streptomycin (Gibco) under standard conditions, and was regularly confirmed to be mycoplasma-free by PCR. […]
(§5) 8-14 week old male and female NOD-SCID Gamma (NSGTM) mice (bred in-house at the Netherlands Cancer Institute (NKI), Amsterdam, The Netherlands) were subcutaneously injected in the right flank with 1×10^6 BLM tumor cells. Tumors were measured three times per week with a caliper, and when tumors were 100 mm3 (after 7 days) the animals were randomized over the following treatment groups: • 1. […]
(§6) Tumor volumes were measured 3 times per week by an independent animal technician in a blinded fashion. Tumor volume was calculated as follows: […]. […]

The test system of test [8] is LCLC-103H NSCLC cell line-derived xenograft. Kind of test: LCLC-103H NSCLC xenograft model with MART-1-specific human T cells. The test is classed as in vivo, mice. The following applies: ADC 1 mg/kg weekly i.v. with control T cells; anti-PD1 5 mg/kg weekly i.p. with MART-1 T cells and control ADC. The procedure: The anti-tumor activity of IgG1-AXL-107-vcMMAE in combination with anti-PD1 (pembrolizumab) was evaluated in the LCLC-103H NSCLC cell line-derived xenograft model in mice, which systemically received human T-cells that were engineered to express a specific T-cell receptor (TCR) against MART-1. Before inoculation of mice with LCLC-103H cells, the LCLC-103H cells were transduced with the antigen (MART-1) as well as the correct HLA haplotype (HLA-A2) in order for the MART-1-specific T cells to recognize the tumor cells.
as §5, with “50” for “100”, “16 days), mice” for “7 days) the animals”, “1. Control T cells+Control ADC (n=7) • 2. MART-1 T cells+Control ADC (n=7) • 3. MART-1 T cells+Control ADC+anti-PD1 (n=7) • 4. Control T cells+IgG1-AXL-107-vcMMAE (n=11) • 5. MART-1 T cells+IgG1-AXL-107-vcMMAE (n=11) • 6. MART-1 T cells+IgG1-AXL-107-vcMMAE+anti-PD1 (n=11)” for “1.”
as §6

The mark [9] stands for this setting: hypotonic conditions (70% PBS), ADCs 2 μg/mL, MMAE 50 nM, paclitaxel 1 μM.

Non-standard residues stand in square brackets, D forms with d. Residues, ends and D or L forms follow the SMILES beside them. *: point of attachment. Dolaproine = CO[C@@H]([C@@H]1CCCN1)[C@@H](C)C(=O)O; Dil = CC[C@H](C)[C@H](NC)[C@@H](CC(=O)O)OC; X1 = C[C@@H](N*)[C@@H](O)c1ccccc1; NMeV = CN[C@H](C(=O)O)C(C)C

On to `CC[C@H](C)[C@@H]([C@@H](CC(=O)N1CCC[C@H]1[C@H](OC)[C@@H](C)C(=O)N[C@H](C)[C@@H](O)c1ccccc1)OC)N(C)C(=O)[C@@H](NC(=O)[C@@H](NC)C(C)C)C(C)C` [MMAE, monomethyl auristatin E] (H-[NMeV]V[Dil][Dolaproine]-X1), for which the “ATP release compared to untreated cells” value is “comparable levels” in the test with LCLC-103H cells [1]; “about 10 fold” in the test with MDA-MB-231 cells [2] (100% PBS, 10 nM MMAE); roughly 26 fold in the test on MDA-MB-231 cells [2] (hypotonic conditions (70% PBS), 10 nM MMAE); “about 10 fold” in the test with MDA-MB-231 cells [2] (setting [9]). In addition, the “cell surface expression of calreticulin (MFI) compared to untreated cells” value with LCLC-103H cells [3] and in the test on MDA-MB-231 cells [4] was “comparable” throughout. In addition, the “percentage of calreticulin positive cells” value in the test on LCLC-103H cells [3] and with MDA-MB-231 cells [4] was “increased” each time. The “HMGB1 secretion compared to untreated cells” value in the test with LCLC-103H cells [5] is given as “similar”; in the test on MDA-MB-231 cells [6], “around 4 fold”.

For the compound `CC(=O)O[C@H]1C(=O)[C@@]2(C)[C@H]([C@H](OC(=O)c3ccccc3)[C@]3(O)C[C@H](OC(=O)[C@H](O)[C@@H](NC(=O)c4ccccc4)c4ccccc4)C(C)=C1C3(C)C)[C@]1(OC(C)=O)CO[C@@H]1C[C@@H]2O` [paclitaxel], the “ATP release compared to untreated cells” value in the test on LCLC-103H cells [1] is reported as “comparable levels”; in the test on MDA-MB-231 cells [2] (setting [9]), roughly 15 fold. Besides, the “cell surface expression of calreticulin (MFI) compared to untreated cells” value in the test with LCLC-103H cells [3] and with MDA-MB-231 cells [4] was “comparable” each time. For the same compound, the “percentage of calreticulin positive cells” value in the test with LCLC-103H cells [3] and with MDA-MB-231 cells [4] was “increased” each time. In addition, the entries for the “HMGB1 secretion compared to untreated cells” value with LCLC-103H cells [5] and in the test with MDA-MB-231 cells [6] were “about 11 fold” and “around 4 fold”, respectively.

For the compound “anti-PD1: anti-PD1 antibody pembrolizumab (KEYTRUDA, MSD), obtained from SelleckChem”, the “anti-tumor effect (tumor size)” value in test [7] and in test [8] was “no enhanced tumor growth inhibition” each time.
